Entries after “also recorded” stand apart in the source; their conditions may differ.

From US20130202594A1, “ALK1 Antagonists and Their Uses in Treating Renal Cell Carcinoma” (priority 2012, published 2013) come the findings set out here.

The target in one assay is T1, BMP2 (Homo sapiens, UniProt P12643).
T1 sequence (P12643 283-396): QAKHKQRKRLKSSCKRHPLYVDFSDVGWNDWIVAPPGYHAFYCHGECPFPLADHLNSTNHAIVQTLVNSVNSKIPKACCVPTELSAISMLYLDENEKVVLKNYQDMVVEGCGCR
Briefly: Biacore binding to hALK1-Fc: BMP2. How it is done:
ALK1 is a type 1 receptor for ligands of the TGFβ family. Multiple members of the TGFβ family were tested for binding to a human ALK1-Fc fusion protein, using a Biacore™ system.
On the technique in general: SPR reads the build-up and loss of mass on a sensor chip optically.

The subject of assay [1] is BMP-9 mediated Smad1/5/8 signaling in HMVEC cells. Briefly: SBE4-luc luciferase reporter of BMP-9 mediated Smad1/5/8 signaling in HMVEC cells. The class given is cell-based, human. Particulars: 10 μg/ml, rhBMP-9 50 ng/ml. How it is done: Using a luciferase reporter construct under the control of four sequential consensus SBE sites (SBE4-luc), which are responsive to Smad1/5/8-mediated signaling, we measured BMP-9 mediated activity in the presence and absence of hALK1-Fc drug or neutralizing ALK1 specific monoclonal antibody in HMVEC cells. HMVEC cells were stimulated with rhBMP-9 (50 ng/ml), which induced Smad1/5/8-mediated transcriptional activation, evidenced here by the increase in SBE4-luc modulated transcriptional upregulation.
Background: In a reporter assay the amount or activity of a reporter protein is the signal.

Another assay relates to endothelial cells. Briefly: Endothelial cell tube forming assay on Matrigel with ECGS. The class given is cell-based. Particulars: for tube formation compared with endostatin: endostatin 100 ng/ml. From the text: In order to evaluate the angiogenic effect of ALK1-Fc in an in vitro system, we assayed the effectiveness of the compound in reducing tube formation of endothelial cells on a Matrigel substrate. This technique is commonly used to assess neovascularization, giving both rapid and highly reproducible results. Endothelial Cell Growth Supplement (ECGS) is used to induce the formation of microvessels from endothelial cells on Matrigel, and the efficacy of anti-angiogenic compounds are then gauged as a reduction of cord formation in the presence of both the drug and ECGS over an 18 hour timecourse. As expected, addition of ECGS (200 ng/ml) induced significant cord formation, as compared to the negative control (no treatment added), which indicates basal levels of endothelial cell cord formation produced on Matrigel substrate (FIG. 5).

For another assay, the system named is MCF-7 cell line. Briefly: MCF-7 orthotopic breast cancer xenograft. The class given is in vivo, mouse. Particulars: 10 or 30 mg/kg twice per week IP. The procedure: The estrogen-receptor-positive (ER+), luciferase expressing cell line, MCF-7, was also tested in an orthotopic implantation model. In this model, female nude mice are implanted subcutaneously with a 60 day slow release pellet of 17β-estradiol. Two days following pellet implantation, 5×10^6 MCF-7 tumor cells were implanted into the mammary fat pad. Mice were treated twice per week with hALK1-Fc at 3, 10 and 30 mg/kg, or vehicle control, by the IP route. Tumor progression was followed by bioluminescent imaging on a weekly basis with an IVIS-Spectrum imager (Caliper Life Sciences). In vehicle treated mice tumors progressed rapidly until study day 26 (FIG. 15). After day 26, there were fluctuations in tumor luminescence until the conclusion of the study at day 60 (when the estradiol pellets were depleted). These fluctuations are due to a common feature of this model in that the rapid tumor growth can exceed the angiogenic response of the host animals leading to tumor necrosis and a concomitant drop-off in luminescent signal. The remaining cells continue to grow leading to an increased signal.

“hALK1-Fc: extracellular domain of human ALK1 (amino acids 22-120) fused to a human IgG1 Fc with a minimal linker (SEQ ID NO:3/14)”: the “binding to hALK1-Fc” value in the assay with BMP2 is given as “failed to show substantial binding; also recorded: only limited binding”. Moreover, the “diminished transcriptional response (SBE4-luc)” value in assay [1] was approximately 60%. Also, the cord formation result in the assay on endothelial cells (100 ng/ml, ECGS 200 ng/ml, 18 hour) is on record as “cord formation was visibly reduced”. For the same substance, the “tube formation compared with endostatin” value in the assay with endothelial cells (ECGS) is “more potent anti-angiogenic activity than the negative control endostatin”; with endothelial cells (ECGS, listed as ACE), “to a greater degree than the positive control, Endostatin”. Besides, the “neovascularization (quantification of vessel length)” value in the assay on endothelial cells (every concentration, ECGS) is given as “reduced neovascularization to basal levels”. Also, the “tumor size / growth (bioluminescence)” value in the assay with MCF-7 cell line is “maintain tumor size at a constant level; also recorded: significant growth-delaying effect”.
